Structures are written as SMILES.

In test [1] the test system is Aorta sections (angiogenesis induced by FGF-2). Description: Angiogenesis test ex vivo (aorta section), FGF-2 induced sprouting in Matrigel. The following applies: for Sprouting area (% vs. control): FGF-2 30 ng/ml, eleven days, control = 100%. The class given is cell-based, C57BL/6 mice. The procedure: Aorta sections (aorta rings of about 1 mm) taken from C57BL/6 mice, are dipped in a Matrigel gel (BD Biosciences), in 96 well plates, in DMEM 5% FCS containing FGF-2 (30 ng/ml) together with the compounds of the invention at concentrations in the range indicated herein below. By using an inverted microscope (IX70; Olympus) after some days it is observed in the plate the formation of a network of capillary structures irradiating from the aorta section. Images were taken and analyzed by ImageJ 1.41. After eleven days from the beginning of the experiment the angiogenic response is quantified as sprouting area, therefore subtracting the area of the aorta section.
The compounds of the examples 2, 4 and 10 and, as a reference, the reference compound sm27 at concentrations comprised between 50 and 100 μM were used. In Table 4 the results are reported, expressed as a percent variation (decrease) of the sprouting area with respect to that of the control (presence of FGF-2 only).
In FIG. 1 the aorta sections are reported, analyzed after eleven days in absence (left photo—(a)) or in the presence (right photo (b)) of the compound obtained in example 10 (concentration 100 μM). […]

For test [2], the system named is BAEC cells. Description: Inhibition of the proliferation of endothelial cells induced by FGF-2 (Crystal Violet). The class given is cell-based, Bovine. The following applies: Table 6; 100 μM; expressed as in Table 2; average of 3 experiments.
Test [3] has as its target FGF-2 (Homo sapiens, UniProt P09038). Description: Competition with biotinylated TS3R domain for binding to immobilized FGF-2 (DELFIA). The conditions noted are these: for % TS3R/FGF-2 binding vs. control: control = 100% binding, average of 3 experiments. The source says:
For the evaluation of the binding of the compounds of the invention to FGF-2, the test described in G. Colombo et al. J. Biol. Chem., 285: 8733, 2010 has been used. In this reference the binding test has been used to assay the binding of compound sm27 to FGF-2. Specifically, the test allows to evaluate the capability of the compounds under examination to compete with the biotinylated TS3R domain (the recombinant part of Thrombospondine 1 (TSP-1) containing the bond sequence for FGF-2), for the binding to FGF-2 immobilized on a plastic support.
In detail, FGF-2 (0.1 μg) has been immobilized on 96 well plates (DELFIA microtitration plates, Perkin Elmer) leaving into contact for one night at 4° C. by using known techniques. After saturation of the non specific sites with 1% BSA, the compounds to be tested and then the biotinylated TS3R domain (10 nM) in PBS 1% BSA were added. After a period of incubation of 3 hours, the plate was washed and treated with Eu-Labeled Streptavidin 1:1000 and incubated again for one further hour. The amount of TS3R bound to FGF was determined with DELFIA Enhancement Solution, measuring the resolved fluorescence (Victor, PerkinElmer).
The test was carried out on the compounds of examples 2, 4, 8, 10 and 12. The used concentrations were respectively of 10 and 100 μM. The obtained results are reported in Table 1 and have been expressed as inhibition percentage of the TS3R/FGF-2 binding induced by the compounds of the invention vs. the control (TS3R/FGF-2 binding in the absence of the compounds of the invention). As a reference compound sm27 was used and assayed at a concentration of 100 μM. […] The compounds of the invention in this test are as effective as sm27 at the assayed dose of 100 μM.
By using the test in vitro described in example 17 the binding to FGF-2 of the compounds (2p) and (2r) having the formulas herein below reported, has been assayed. These compounds are disclosed by G. A. Pinna et al. on Il Farmaco 58 (2003) 749-763.

For test [4], the target named is T1, FGF-2 binding to BAEC cells (Bovine Aortic Endothelial Cells) (Homo sapiens, UniProt P09038).
T1 construct: host or cells: added exogenously to BAEC (Bovine Aortic Endothelial Cells)
T1 sequence (P09038 143-288): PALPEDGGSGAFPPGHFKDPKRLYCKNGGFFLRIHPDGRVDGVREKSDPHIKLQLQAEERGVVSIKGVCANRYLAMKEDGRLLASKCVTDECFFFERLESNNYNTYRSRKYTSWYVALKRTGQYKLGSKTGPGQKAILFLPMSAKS
Description: Inhibition of the binding of europium-labelled FGF-2 to endothelial cells. The class given is cell-based. The following applies: 100 μM; control = 100% binding; average of 3 experiments. The method, then: Sub-confluent BAEC cells (Bovine Aortic Endothelial Cells), in 96 well plates, were incubated with DMEM without serum for 30 minutes at 4° C. The compound of the invention to be assayed and FGF-2, labelled with europium (FGF-Eu, 10 ng/ml), were added in DMEM containing 0.15% gelatine and HEPES 25 mM. The plate was incubated for 2 hours at 4° C. After washings with cold medium, the amount of FGF-Eu bound to the cells was determined with DELFIA Enhancement Solution by measuring the time resolved fluorescence (Victor, PerkinElmer).
The compounds obtained in examples 2, 4, 8 and 10 were used at a concentration of 100 μM. As a reference the compound sm27 was used. The obtained results are reported in Table 2 and are expressed as inhibition percentage of the FGF-2 binding to endothelial cells induced by the compounds of the invention and by sm27 vs. the control (FGF-2 bond to endothelial cells in absence of inhibition). The value obtained with the control was assumed as 100% binding.
Example 18 has been repeated by using the two compounds of the prior art (2p) and (2r).

Test [5] relates to BAEC cells. Description: Inhibition of the proliferation of endothelial cells induced by FGF-2 (Crystal Violet). The following applies: FGF-2 5 ng/ml, 72 h. The class given is cell-based, Bovine. The method, then: BAEC cells (25000/ml) in DMEM 1.5% FCS were sown in 96 well plates. After 24 h the culture medium was substituted with DMEM 0.5% FCS containing the compounds of the invention at different concentrations in the range indicated herein below, and FGF-2 (5 ng/ml) or 10% FCS, added as stimulator of the cellular proliferation. After 72 h of incubation, the cells were fixed and stained with Crystal Violet, (Sigma). The stain was then eluted by using a solution 1:1 of ethanol and sodium citrate 0.1M and the absorption of the solution determined at the wave length of 540 nm.
In this test the compounds of examples 2, 4, 8 and 10 were used. For each compound several concentrations comprised between 10 and 100 μM were prepared. The obtained results are reported in Table 3 and have been given as percent reduction of the cellular proliferation of endothelial cells in the presence of FGF-2, induced by the compounds of the invention, with respect to the control (proliferation in the presence of FGF-2 only).

Chain of FGF-2 (P09038 143-288, species assumed): as the sequence (P09038 143-288) above

As to `CN(CCCNC(=O)c1nn(-c2ccccc2)c2c1Cc1ccccc1-2)CCCNC(=O)c1nn(-c2ccccc2)c2c1Cc1ccccc1-2` [Compound (2p), reference compound], the “Inhibition of the angiogenesis induced by FGF-2 (aorta ring), in words” value in test [1] was “do not result active in inhibiting the angiogenesis induced by FGF-2”. Further, in test [1] (100 μM), the “Sprouting area (% vs. control)” value is 95.5 ± 5%. Moreover, the “Cell proliferation (% vs. control)” value in test [2] worked out at 97 ± 4%. For the same molecule, in test [3] (100 μM), the “Binding to FGF-2 / inhibition of TS3R/FGF-2 binding, in words” value is reported as “do not show any significant binding to FGF-2” and the “% TS3R/FGF-2 binding vs. control” value is on record as 96 ± 3%.

Turning to `CN(CCCNC(=O)c1nn(-c2ccc(Cl)cc2Cl)c2c1Cc1ccccc1-2)CCCNC(=O)c1nn(-c2ccc(Cl)cc2Cl)c2c1Cc1ccccc1-2` [Compound (2r), reference compound], the “Inhibition of the angiogenesis induced by FGF-2 (aorta ring), in words” value in test [1] is reported as “do not result active in inhibiting the angiogenesis induced by FGF-2”. Besides, the “Sprouting area (% vs. control)” value in test [1] (100 μM) was determined as 91.1 ± 6%. Moreover, the “Cell proliferation (% vs. control)” value in test [2] is on record as 94 ± 6%. In test [3] (100 μM), the “Binding to FGF-2 / inhibition of TS3R/FGF-2 binding, in words” value was “do not show any significant binding to FGF-2” and the “% TS3R/FGF-2 binding vs. control” value is recorded as 98 ± 6%.

`O=C(NCCCNC(=O)c1nn(-c2ccc(Cl)cc2Cl)c2c1Cc1cc(S(=O)(=O)O)sc1-2)c1nn(-c2ccc(Cl)cc2Cl)c2c1Cc1cc(S(=O)(=O)O)sc1-2` [Example 2, 3,3′-(propane-1,3-diylbis(azanediyl))bis(oxomethylene)bis(1-(2,4-dichlorophenyl)-1,4-dihydro-thieno[3′,2′:4,5]cyclopenta[1,2-c]pyrazole-6-sulfonic acid)]: in test [4], the “Inhibition of the FGF-2 binding to endothelial cells (% binding FGF-2/endothelial cells vs. control)” value is listed as 22 ± 3%. The entries for the “Sprouting area (% vs. control)” value in test [1] (50 μM), in test [1] (75 μM) and in test [1] (100 μM) were 43.9 ± 9%, 10.5 ± 5% and 1.8 ± 0.7%, respectively. Moreover, the “% TS3R/FGF-2 binding vs. control” value in test [3] (10 μM) was 25 ± 3%; in test [3] (100 μM), 13 ± 3%. For the same molecule, the “Cell proliferation (% vs. control)” value in test [5] (10 μM, control = 100%) worked out at 90 ± 3%; in test [5] (50 μM, control = 100%), 20 ± 4%; in test [5] (100 μM), 8 ± 3%.

As to `O=C(NCCCCCCNC(=O)c1nn(-c2ccc(Cl)cc2Cl)c2c1Cc1cc(S(=O)(=O)O)sc1-2)c1nn(-c2ccc(Cl)cc2Cl)c2c1Cc1cc(S(=O)(=O)O)sc1-2` [Example 4, 3,3′-(hexane-1,6-diylbis(azanediyl))bis(oxomethylene)bis(1-(2,4-dichlorophenyl)-1,4-dihydro-thieno[3′,2′:4,5]cyclopenta[1,2-c]pyrazole-6-sulfonic acid)], the “Inhibition of the FGF-2 binding to endothelial cells (% binding FGF-2/endothelial cells vs. control)” value in test [4] stood at 30 ± 3%. For the same molecule, the figures for the “Sprouting area (% vs. control)” value in test [1] (75 μM) and in test [1] (100 μM) were 21.0 ± 5% and 15.8 ± 4%, respectively. Further, the “% TS3R/FGF-2 binding vs. control” value in test [3] (10 μM) was determined as 40 ± 2%; in test [3] (100 μM), 20 ± 1%. For the same molecule, the “Cell proliferation (% vs. control)” value in test [5] (10 μM, control = 100%) worked out at 92 ± 4%; in test [5] (50 μM, control = 100%) it was 70 ± 6%; in test [5] (100 μM) it was 30 ± 7%.

Turning to `Cc1ccc(Cn2nc(C(=O)NCCCCCCNC(=O)c3nn(Cc4ccc(C)cc4)c4c3Cc3cc(S(=O)(=O)O)sc3-4)c3c2-c2sc(S(=O)(=O)O)cc2C3)cc1` [Example 8, 3,3′-(hexane-1,6-diylbis(azanediyl))bis(oxomethylene)bis(1-(4-methylbenzyl)-1,4-dihydro-thieno[3′,2′:4,5]cyclopenta[1,2-c]pyrazole-6-sulfonic acid)], in test [4], the “Inhibition of the FGF-2 binding to endothelial cells (% binding FGF-2/endothelial cells vs. control)” value was found to be 28 ± 4%. Besides, the figures for the “% TS3R/FGF-2 binding vs. control” value in test [3] (10 μM) and in test [3] (100 μM) were 61 ± 5% and 25 ± 4%, respectively. For the same molecule, the “Cell proliferation (% vs. control)” value was found to be 95 ± 2% in test [5] (10 μM, control = 100%); 80 ± 4% in test [5] (50 μM, control = 100%); 36 ± 5% in test [5] (100 μM).

As to `O=C(Nc1ccc2cc(S(=O)(=O)O)cc(O)c2c1)Nc1ccc2cc(S(=O)(=O)O)cc(O)c2c1` [sm27, reference compound], the “Inhibition of the FGF-2 binding to endothelial cells (% binding FGF-2/endothelial cells vs. control)” value in test [4] stood at 40 ± 2%. Further, in test [1] (100 μM), the “Sprouting area (% vs. control)” value is 44.0 ± 8%. For the same molecule, the “% TS3R/FGF-2 binding vs. control” value in test [3] (100 μM) amounted to 17 ± 5%. Further, in test [5] (100 μM), the “Cell proliferation (% vs. control)” value came out at 60 ± 6%.

For the origin of these results see US9181196B2, “Pharmaceutical compounds” (KEMOTECH S.r.l., priority 2013, dated 2015).
